ChEMBL document CHEMBL4334438, “Discovery of novel glycogen synthase kinase-3α inhibitors: Structure-based virtual screening, preliminary SAR and biological evaluation for treatment of acute myeloid leukemia” (Eur J Med Chem, 2019)

What was measured:
[1] = system: Glycogen synthase kinase-3 alpha (Homo sapiens), P49840 [UNDEFINED MUTATION]; assay: Inhibition of human GSK-3alpha S449A mutant (2 to end residues) at 10 uM using phospho GS2 peptide as substrate after 40 mins in presence of [gamma-33ATP] by scintillation counting method relative to control
Sequence of Glycogen synthase kinase-3 alpha (Homo sapiens), P49840 [UNDEFINED MUTATION] (P49840 whole entry, looked up, stated change not applied, the tested form may be a part): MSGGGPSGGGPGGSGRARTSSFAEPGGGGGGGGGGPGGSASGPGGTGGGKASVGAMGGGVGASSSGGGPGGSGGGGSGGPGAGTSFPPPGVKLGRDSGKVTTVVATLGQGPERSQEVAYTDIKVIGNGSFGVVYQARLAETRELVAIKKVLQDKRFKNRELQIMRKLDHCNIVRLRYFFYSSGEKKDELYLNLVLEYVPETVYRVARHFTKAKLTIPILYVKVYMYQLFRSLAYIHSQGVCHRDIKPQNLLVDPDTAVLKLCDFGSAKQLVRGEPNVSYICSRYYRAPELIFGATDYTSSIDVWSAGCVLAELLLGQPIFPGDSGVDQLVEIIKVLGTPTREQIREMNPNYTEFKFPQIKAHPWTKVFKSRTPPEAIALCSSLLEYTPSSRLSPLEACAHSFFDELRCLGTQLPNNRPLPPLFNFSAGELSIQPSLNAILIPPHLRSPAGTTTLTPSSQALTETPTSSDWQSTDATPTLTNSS

[2] = molecular target: GSK-3beta (H350L mutant) (Homo sapiens, UniProt P49841, H350L); assay: Inhibition of human GSK-3beta H350L mutant (2 to end residues) at 10 uM using phospho GS2 peptide as substrate after 40 mins by [gamma-33ATP] radiometric assay relative to control; settings: human GSK-3beta H350L mutant enzyme (residues 2 to end), probe phospho GS2 peptide
Sequence of GSK-3beta (H350L mutant) (P49841 whole entry, looked up, stated change not applied, the tested form may be a part): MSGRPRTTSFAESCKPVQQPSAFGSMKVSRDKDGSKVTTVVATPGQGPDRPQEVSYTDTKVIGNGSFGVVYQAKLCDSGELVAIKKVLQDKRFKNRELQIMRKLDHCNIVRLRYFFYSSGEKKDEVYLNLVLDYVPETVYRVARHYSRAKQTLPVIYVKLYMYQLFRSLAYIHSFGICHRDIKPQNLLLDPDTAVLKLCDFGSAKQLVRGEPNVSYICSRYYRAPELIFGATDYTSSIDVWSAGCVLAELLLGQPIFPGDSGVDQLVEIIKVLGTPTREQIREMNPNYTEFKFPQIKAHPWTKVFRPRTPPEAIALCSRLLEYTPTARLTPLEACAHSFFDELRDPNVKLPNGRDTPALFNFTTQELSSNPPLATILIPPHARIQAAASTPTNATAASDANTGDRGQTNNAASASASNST

[3] = molecular target: Glycogen synthase kinase-3 alpha (Homo sapiens, UniProt P49840); assay: Inhibition of human GSK-3alpha S449A mutant (2 to end residues) using phospho GS2 peptide as substrate after 40 mins in presence of [gamma-33ATP] by scintillation counting method
Sequence of Glycogen synthase kinase-3 alpha (P49840 whole entry): as the sequence (P49840 whole entry, looked up, stated change not applied, the tested form may be a part) above

[4] = molecular target: Glycogen synthase kinase-3 beta (Homo sapiens, UniProt P49841, H350L); assay: Inhibition of human GSK-3beta H350L mutant (2 to end residues) at 10 uM using phospho GS2 peptide as substrate after 40 mins by [gamma-33ATP] radiometric assay
Sequence of Glycogen synthase kinase-3 beta (P49841 whole entry, looked up, stated change not applied): as the sequence (P49841 whole entry, looked up, stated change not applied, the tested form may be a part) above

`N#Cc1ccccc1-c1ccc(C=C2C(=O)NC(=S)NC2=O)o1` gave an inhibition [1] of 14%.
For `Cc1ccc(OCc2n[nH]c(Nc3ccccc3)n2)cc1`, the inhibition [1] was 5%.
In the case of `N#Cc1cn(CCCN2CCN(CCCn3cc(C#N)c(=O)[nH]c3=O)CC2)c(=O)[nH]c1=O`, the inhibition [1] is reported as 2%.
Compound `CC(=O)c1cn(CCCCCCCCCCn2cc(C(C)=O)c(=O)[nH]c2=O)c(=O)[nH]c1=O` has an inhibition [1] of 13%.
For `N=C1NC(=O)/C(=C\c2ccc(-c3ccccc3Cl)o2)S1`, the inhibition at 40 min, 10 µM [2] was 95%, the inhibition [1] was 95% and the IC50 [3] was 242 nM. The IC50 [4] was 565 nM.
For `COc1cc(CNc2nn[nH]n2)ccc1OCC(N)=O`, the inhibition [1] was 1%.
For `CC(=O)/N=C1/NC(=O)/C(=C\c2ccc(-c3ccc(C)c(Cl)c3)o2)S1`, the inhibition [1] was 21%.
With `N=C1NC(=O)/C(=C\c2ccc(-c3cccc(Cl)c3)o2)S1` the inhibition at 40 min, 10 µM [2] was 88%, the inhibition [1] was 94% and the IC50 [3] was 282 nM. For the same compound, the IC50 [4] was 767 nM.
Compound `COc1cc([N+](=O)[O-])ccc1-c1ccc(/C=C2/SC(=N)NC2=O)o1` has an inhibition [1] of 29%.
For `O=C(CSc1nc2ccccc2[nH]c1=O)Nc1ccc2c(c1)OCO2`, the inhibition [1] was 2%.
`COc1ccc(-c2ccc(CNc3n[nH]c(C)n3)o2)cc1Cl` gave an inhibition [1] of 8%.
For `O=C1N/C(=N/c2ccccc2)S/C1=C/c1ccco1`, the inhibition [1] was 21%.
`CC(=O)/N=C1/NC(=O)/C(=C\c2ccc(-c3ccc(F)cc3F)o2)S1` was tested, and the inhibition [1] was 15%.
`O=C1N/C(=N/c2ccccc2)S/C1=C/c1ccc(-c2ccccc2)o1` was tested, and the inhibition [1] was 23%.
Compound `COc1ccc(-c2n[nH]cc2/C=N\NC(=O)c2ccccc2I)cc1OC` has an inhibition [1] of 44%.
Work on `O=C1NC(=S)N/C1=C/c1ccc(-c2cccc(C(=O)O)c2)o1` yielded an inhibition at 40 min, 10 µM [2] of 96%, an inhibition [1] of 97% and an IC50 [3] of 145 nM. It also gave an IC50 [4] of 338 nM.
For `O=C(COC(=O)c1cc(O)nc2ccccc12)c1cccc2ccccc12`, the inhibition [1] was 2%.
`COC(=O)c1ccc(-c2ccc(/C=C3\C(=O)NC(=N)N3C)o2)cc1` gave an inhibition [1] of 32%.
`COc1ccc([N+](=O)[O-])cc1-c1ccc(/C=C2/S/C(=N\C(C)=O)NC2=O)o1` showed an inhibition [1] of 9%.
`O=C(O)CCC(=O)N1N=C(c2c(-c3ccccc3)c3cc(Cl)ccc3[nH]c2=O)CC1c1ccco1` (configuration not stated) showed an IC50 [3] of 13000 nM.
For `NC1=NC(=O)/C(=C\c2ccc(-c3ccccc3[N+](=O)[O-])o2)S1`, the inhibition at 40 min, 10 µM [2] was 82%, the inhibition [1] was 91% and the IC50 [3] was 2800 nM. For the same compound, the IC50 [4] was 2500 nM.
`CCN1C(=O)/C(=C\c2ccc(-c3ccc(Cl)cc3Cl)o2)NC1=S` showed an inhibition [1] of 26%.
`O=C1NC(=S)N/C1=C/c1ccc(Sc2ccc(Cl)cc2)o1` was tested, and the inhibition [1] was 23%.
Compound `O=C(N/N=C/c1cccnc1)c1cc(-c2cccc3ccccc23)n[nH]1` has an inhibition [1] of 12%.
`NS(=O)(=O)c1ccc(N/C=C2/C(=O)NC(=O)N(c3ccccc3)C2=O)cc1` showed an inhibition [1] of 17%.
`COc1ccc(CNc2cc(-c3ccco3)n[nH]2)cc1` showed an inhibition [1] of 1%.
Work on `CCCN1C(=O)/C(=C\c2ccc(-c3ccc(Cl)cc3)o2)NC1=S` yielded an inhibition [1] of 17%.
`O=C1NC(=S)N/C1=C/c1ccc(-c2ccc([N+](=O)[O-])cc2)o1` showed an inhibition at 40 min, 10 µM [2] of 72%, an inhibition [1] of 88% and an IC50 [3] of 412 nM. For the same compound, the IC50 [4] was 584 nM.
In the case of `O=C1NC(=O)N(c2ccc(Br)cc2)C(=O)/C1=C\NCCc1c[nH]c2ccccc12`, the inhibition [1] is reported as 66% and the IC50 [3] is reported as 4600 nM.
With `Cc1ccc(Cl)cc1-c1ccc(/C=C2/S/C(=N\c3ccccc3)NC2=O)o1` the inhibition [1] was 0%.
With `CC1=NN(c2cccc(C(=O)O)c2)C(=O)/C1=C\c1ccc(-c2ccc3c(c2)C(=O)NC3=O)o1` the inhibition [1] was 58% and the IC50 [3] was 6150 nM.
Compound `Cc1c(-c2ccc(/C=C3/SC(=N)NC3=O)o2)ccc([N+](=O)[O-])c1C` has an inhibition at 40 min, 10 µM [2] of 66%, an inhibition [1] of 64% and an IC50 [3] of 227 nM. The IC50 [4] was 571 nM.
With `Nc1nc(CCCc2n[nH]c(N)n2)n[nH]1` the inhibition [1] was 16%.
Work on `O=C(N/N=C/c1cccc(Cl)c1)c1cc(-c2ccc3c4c(cccc24)CC3)[nH]n1` yielded an inhibition [1] of 52% and an IC50 [3] of 11200 nM.
For `COc1cc(CNc2ccc(CNc3nc[nH]n3)cc2)ccc1OCC(=O)NC(C)(C)C`, the inhibition [1] was 1%.
With `Cc1ccc(-c2ccc(/C=C3/NC(=S)NC3=O)o2)cc1Cl` the inhibition at 40 min, 10 µM [2] was 72%, the inhibition [1] was 76% and the IC50 [3] was 904 nM. For the same compound, the IC50 [4] was 1290 nM.
`N=C1NC(=O)/C(=C\c2ccc(-c3cccc(C(=O)O)c3)o2)S1` showed an inhibition at 40 min, 10 µM [2] of 93%, an inhibition [1] of 97% and an IC50 [3] of 207 nM. It also gave an IC50 [4] of 308 nM.
`Cc1ccc(-c2ccc(/C=C3/SC(=N)NC3=O)o2)c([N+](=O)[O-])c1` gave an inhibition at 40 min, 10 µM [2] of 89%, an inhibition [1] of 85% and an IC50 [3] of 162 nM. For the same compound, the IC50 [4] was 320 nM.
In the case of `Cc1ccccc1OCC(=O)Nc1ccc(Oc2ccc3c(c2)C(=O)NC3=O)cc1`, the inhibition [1] is reported as 54% and the IC50 [3] is reported as 10200 nM.
Compound `NC(=O)CSc1nc2c(N)ncnc2n1Cc1ccccc1` has an inhibition [1] of -10%.
With `CCCCCSc1nc2c(c(=O)[nH]c(=O)n2C)n1CC(O)COc1ccccc1` (configuration not stated) the inhibition [1] was 25%.
Work on `O=C(O)c1cc(NS(=O)(=O)c2ccc3c4c(cccc24)C(=O)N3)ccc1O` yielded an inhibition [1] of 15%.
With `COc1ccc([N+](=O)[O-])cc1-c1ccc(/C=C2/SC(=N)NC2=O)o1` the inhibition [1] was 15%.
Compound `COc1cc(/C=C2/C(=O)NC(=O)N(c3ccccc3)C2=O)ccc1O` has an inhibition [1] of 14%.
Work on `N=C1NC(=O)/C(=C\c2ccc(-c3ccc(Cl)c([N+](=O)[O-])c3)o2)S1` yielded an inhibition [1] of 49%.
For `Cc1ccc(SCc2[nH]nc3c2C(c2ccnc4ccccc24)C(C#N)=C(N)O3)cc1` (configuration not stated), the inhibition [1] was 2%.
`CC(=O)/N=C1/NC(=O)/C(=C\c2ccc(-c3ccccc3C(=O)O)o2)S1` was tested, and the inhibition [1] was 11%.
`Cc1[nH]nc2c1C(c1ccnc3ccccc13)C(C#N)=C(N)O2` (configuration not stated) gave an inhibition [1] of 6%.
Work on `O=C(CSc1nnc(CCc2nnc(SCC(=O)c3ccccc3)[nH]2)[nH]1)c1ccccc1` yielded an inhibition [1] of 25%.
Work on `O=C1N/C(=N/Cc2ccccc2)S/C1=C/c1ccc(-c2ccccc2)o1` yielded an inhibition [1] of 30%.
`CCOc1c(/C=C2/SC(=O)NC2=O)cccc1OC` gave an inhibition [1] of 54% and an IC50 [3] of 16800 nM.
`N=C1NC(=O)/C(=C\c2ccc(-c3ccc([N+](=O)[O-])cc3Cl)o2)S1` was tested, and the inhibition [1] was 20%.
Compound `CN1C(=O)/C(=C\c2ccc(-c3cccc(Cl)c3)o2)N(C)C1=S` has an inhibition [1] of 13%.
`N#CC1=C(N)Oc2[nH]nc(-c3cccnc3)c2/C1=C1\C(=O)Nc2ccc(Br)cc21` was tested, and the inhibition [1] was 2%.
`O=C1N/C(=N/c2ccccc2)S/C1=C/c1ccc(-c2cccc(C(=O)O)c2)o1` gave an inhibition [1] of 15%.
For `Cc1c(Cl)cccc1-c1ccc(CNc2nc[nH]n2)o1`, the inhibition [1] was 8%.
`NC(=O)Cc1nc2sc3c(c2c(=O)[nH]1)CCN(Cc1ccccc1)C3` was tested, and the inhibition [1] was -1%.
For `O=C1NC(=S)N/C1=C/c1ccc(-c2c(Br)cc([N+](=O)[O-])cc2Br)o1`, the inhibition [1] was 42%.
`O=C(O)CCC(=O)N1N=C(c2c(O)nc3ccc(Cl)cc3c2-c2ccccc2)CC1c1ccco1` (configuration not stated) showed an inhibition [1] of 67%.
`O=C1NC(=S)N/C1=C/c1ccc(-c2cc([N+](=O)[O-])ccc2Cl)o1` gave an inhibition [1] of 22%.
`Cc1cc(C)cc(/N=C2/NC(=O)/C(=C\c3ccc(-c4cccc(Cl)c4)o3)S2)c1` was tested, and the inhibition [1] was 10%.
`Cc1cc([N+](=O)[O-])ccc1-c1ccc(/C=C2/SC(=N)NC2=O)o1` showed an inhibition [1] of 44%.
Compound `CCN1C(=O)/C(=C\c2ccc(-c3ccc(C(=O)O)cc3)o2)N(CC)C1=S` has an inhibition [1] of 38%.
Work on `O=C1NC(=S)NC(=O)C1=Cc1ccc(-c2cc(Cl)ccc2Cl)o1` yielded an inhibition [1] of 26%.
With `O=C1N/C(=N/c2ccccc2)S/C1=C/c1ccc(Sc2ccc(Cl)cc2)o1` the inhibition [1] was 47%.
